Measurements as given in patent EP4603105A1, “PHARMACEUTICAL COMPOSITION CONTAINING CYCLIC COMPOUND HAVING SELECTIVE KRAS INHIBITORY EFFECT AGAINST HRAS AND NRAS” (CHUGAI SEIYAKU KABUSHIKI KAISHA, priority 2022, dated 2024).
Where a SMILES comes first, the peptide text is derived from it. Bridges are numbered along the chain shown (N, C = ends). [ ]: non-standard residue; d: D form. The star is where a group is joined. hPhe(3-Cl-4-CF3) = N[C@@H](CCc1ccc(C(F)(F)F)c(Cl)c1)C(=O)O; NEtPhe(4-CF3) = CCN[C@@H](Cc1ccc(C(F)(F)F)cc1)C(=O)O; NPrPhe(4-Me) = CCCN[C@@H](Cc1ccc(C)cc1)C(=O)O; NMeGly(cPent) = CN[C@H](C(=O)O)C1CCCC1; NEtPhe = CCN[C@@H](Cc1ccccc1)C(=O)O; NMeD = CN[C@@H](CC(=O)O)C(=O)O; NMeL = CN[C@@H](CC(C)C)C(=O)O; Morpholide = C1CN(*)CCO1; NMeA = CN[C@@H](C)C(=O)O; Ac5c = NC1(C(=O)O)CCCC1; Aze = O=C(O)[C@@H]1CCN1; Sar = CNCC(=O)O

Tests used:
[1] = system: human lung cancer strain NCI-H441; format: cell-based
How it was run: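 Proliferation was scored by […] measured after the reagent was added to cultures kept at 37°C in 5% carbon dioxide.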

[2] = target: GDP-bound NRAS wild-type protein (Homo sapiens, UniProt P01111); test: Binding to NRAS by surface plasmon resonance (SPR), KD and KD ratio to KRAS
Sequence of GDP-bound NRAS wild-type protein (P01111 whole entry): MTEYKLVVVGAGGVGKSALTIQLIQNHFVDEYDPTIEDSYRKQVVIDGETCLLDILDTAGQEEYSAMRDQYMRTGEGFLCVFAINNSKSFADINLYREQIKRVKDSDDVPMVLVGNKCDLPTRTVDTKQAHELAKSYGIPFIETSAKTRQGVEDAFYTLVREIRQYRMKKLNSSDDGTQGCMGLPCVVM
How it was run: (§1)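 SPR, 30°C: Avi-biotin RAS·GDP captured via Biotin CAPture (~100–300 RU); running buffer HBS pH 7.4, 1 mM DTT, 10 mM MgCl2, 0.01% Tween 20, 10 µM GDP, 4% DMSO. Single-cycle kinetics, 100 µL/min, 75 s injections; 1:1 model → KD.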

[3] = target: HRAS wild-type protein (Homo sapiens, UniProt P01112); test: Binding to HRAS by surface plasmon resonance (SPR), KD and KD ratio to KRAS
Sequence of HRAS wild-type protein (P01112 whole entry): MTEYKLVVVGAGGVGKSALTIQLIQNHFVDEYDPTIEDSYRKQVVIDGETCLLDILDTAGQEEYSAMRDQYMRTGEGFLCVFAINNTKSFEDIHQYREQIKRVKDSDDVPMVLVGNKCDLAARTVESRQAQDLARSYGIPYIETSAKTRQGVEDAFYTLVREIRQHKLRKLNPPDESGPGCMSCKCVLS
How it was run: as §1

[4] = ratio of KD for GDP-bound NRAS wild-type protein to KD for KRAS
[5] = ratio of KD for HRAS wild-type protein to KD for KRAS
[6] = ratio of the KD value with respect to GDP-bound NRAS wild-type protein to the KD value with respect to KRAS
[7] = ratio of the KD value with respect to HRAS wild-type protein to the KD value with respect to KRAS
[8] = ratio of KD value for GDP-bound NRAS wild-type protein to KD value for KRAS (SPR)
[9] = ratio of KD value for HRAS wild-type protein to KD value for KRAS (SPR)

| Structure (SMILES) | IC50 [1] | NRAS /KRAS [2, 4] | HRAS /KRAS [3, 5] | NRAS /KRAS [2, 6] | HRAS /KRAS [3, 7] | NRAS /KRAS [2, 8] | HRAS /KRAS [3, 9] |
| --- | --- | --- | --- | --- | --- | --- | --- |
| CCO[C@@H]1C[C@H]2C(=O)NC3(CCC3)C(=O)N(C)[C@@H](C3CCCC3)C(=O)N(C)[C@H](C(=O)N3CCOCC3)CC(=O)N(C)[C@@H](CC(F)F)C(=O)N[C@@H]([C@@H](C)CC)C(=O)N(C)CC(=O)N(C)[C@H]3CCCCCN(C3=O)[C@@H](Cc3ccc(C(F)(F)F)cc3)C(=O)N(C)CC(=O)N[C@@H](CCc3cc(F)c(C(F)(F)F)c(F)c3)C(=O)N2C1 [PP0854] | 21.7 nM | B (a compound having 3 or more and less than 10 is denoted as B) | B (a compound having 3 or more and less than 10 is denoted as B) | – | – | – | – |
| CCO[C@@H]1C[C@H]2C(=O)NC3(CCC3)C(=O)N(C)[C@@H](C3CCCC3)C(=O)N(C)[C@H](C(=O)N(C)C)CC(=O)N(C)[C@@H](CC)C(=O)N[C@@H]([C@@H](C)CC)C(=O)N(C)CC(=O)N(C)[C@H]3CC=C(C)CN(C3=O)[C@@H](Cc3ccc(C(F)(F)F)cc3)C(=O)N(C)CC(=O)N[C@@H](CCc3cc(F)c(C(F)(F)F)c(F)c3)C(=O)N2C1 [PP0827] | 15.7 nM | C (A compound having a KD ratio of 0.1 or more and less than 3 is denoted as C) | C (A compound having a KD ratio of 0.1 or more and less than 3 is denoted as C) | – | – | – | – |
| CCOC[C@H]1C(=O)N[C@@H]([C@@H](C)CC)C(=O)N(C)CC(=O)N(C)[C@H]2C/C=C\CCN(C2=O)[C@@H](Cc2ccc(C(F)(F)F)cc2)C(=O)N(C)CC(=O)N[C@@H](CCc2cc(F)c(C(F)(F)F)c(F)c2)C(=O)N2C[C@H](OCC)C[C@H]2C(=O)NC2(CC(C)(C)C2)C(=O)N(C)[C@@H](C2CCCC2)C(=O)N(C)[C@H](C(=O)N(C)CC)CC(=O)N1C [PP2032] | 8.1 nM | – | – | A (a compound having 10 or more and less than 20 is denoted as A) | B (a compound having 3 or more and less than 10 is denoted as B) | – | – |
| CCC[C@H]1C(=O)N[C@@H]([C@@H](C)CC)C(=O)N(C)CC(=O)N(C)[C@H]2C/C=C\CCN(C2=O)[C@@H](Cc2ccc(C)cc2)C(=O)N(C)CC(=O)N[C@@H](CCc2cc(Cl)c3c(ccn3C)c2)C(=O)N2C[C@H](OCC)C[C@H]2C(=O)NC2(CC(C)(C)C2)C(=O)N(C)[C@@H](C(CC)CC)C(=O)N(C)[C@H](C(=O)N(C)C)CC(=O)N1C [PP2898] | 98.1 nM | A (a compound having 10 or more and less than 20 is denoted as A) | A (a compound having 10 or more and less than 20 is denoted as A) | – | – | – | – |
| CC[C@H](C)[C@@H]1NC(=O)[C@H](CC(C)C)N(C)C(=O)C[C@@H](C(=O)N2CCOCC2)N(C)C(=O)[C@H](C2CCCC2)N(C)C(=O)C2(CCCC2)NC(=O)[C@@H]2CCCN2C(=O)[C@H](CCc2ccc(C(F)(F)F)c(Cl)c2)NC(=O)CN(C)C(=O)[C@H](Cc2ccccc2)N(CC)C(=O)[C@@H]2CCN2C(=O)[C@H](C)N(C)C1=O [PP0215] ([NMeL]I[NMeA][Aze][NEtPhe][Sar][hPhe(3-Cl-4-CF3)]P[Ac5c][NMeGly(cPent)][NMeD]-Morpholide; lactam N-11) | 4.8 nM | C (A compound having a KD ratio of 0.1 or more and less than 3 is denoted as C) | C (A compound having a KD ratio of 0.1 or more and less than 3 is denoted as C) | – | – | – | – |
| CC[C@H](C)[C@@H]1NC(=O)[C@H](CC(C)C)N(C)C(=O)C[C@@H](C(=O)N2CCOCC2)N(C)C(=O)[C@H](C2CCCC2)N(C)C(=O)C2(CCCC2)NC(=O)[C@@H]2CCCN2C(=O)[C@H](CCc2ccc(C(F)(F)F)c(Cl)c2)NC(=O)CN(C)C(=O)[C@H](Cc2ccc(C(F)(F)F)cc2)N(CC)C(=O)CN(C)C(=O)CN(C)C1=O [PP0023] ([NMeL]I[Sar][Sar][NEtPhe(4-CF3)][Sar][hPhe(3-Cl-4-CF3)]P[Ac5c][NMeGly(cPent)][NMeD]-Morpholide; lactam N-11) | 4.5 nM | B (a compound having 3 or more and less than 10 is denoted as B) | C (A compound having a KD ratio of 0.1 or more and less than 3 is denoted as C) | – | – | – | – |
| CC[C@H](C)[C@@H]1NC(=O)[C@H](C2CC2)N(C)C(=O)C[C@@H](C(=O)N(C)C)N(C)C(=O)[C@H](C2CCCC2)N(C)C(=O)C2(CCC2)N(C)C(=O)[C@@H]2CCCN2C(=O)[C@H](CCc2cc(F)c(C(F)(F)F)c(F)c2)NC(=O)CN(C)C(=O)[C@H](Cc2ccc(C)cc2)N2CC/C=C\C[C@@H](C2=O)N(C)C(=O)CN(C)C1=O [PP1784] | 7.8 nM | – | – | – | – | A (a compound having 10 or more and less than 20 is denoted as A) | B (a compound having 3 or more and less than 10 is denoted as B) |
| CCO[C@@H]1C[C@H]2C(=O)NC3(CCC3)C(=O)N(C)[C@@H](C3CCCC3)C(=O)N(C)[C@H](C(=O)N(C)C)CC(=O)N(C)[C@@H](CCOC)C(=O)N[C@@H]([C@@H](C)CC)C(=O)N(C)CC(=O)N(C)[C@H]3CCCCN(C3=O)[C@@H](Cc3ccc(C(F)(F)F)cc3)C(=O)N(C)CC(=O)N[C@@H](CCc3cc(F)c(C(F)(F)F)c(F)c3)C(=O)N2C1 [PP0705] | 17.5 nM | – | – | C (A compound having a KD ratio of 0.1 or more and less than 3 is denoted as C) | C (A compound having a KD ratio of 0.1 or more and less than 3 is denoted as C) | – | – |
| CCO[C@@H]1C[C@H]2C(=O)NC3(CCCC3)C(=O)N(C)[C@@H](C3CCCC3)C(=O)N(C)[C@H](C(=O)N(C)C)CC(=O)N(C)[C@@H](CC)C(=O)N[C@@H]([C@@H](C)CC)C(=O)N(C)CC(=O)N(C)[C@H]3C[C@@H](C)CCN(C3=O)[C@@H](Cc3ccc(C(F)(F)F)cc3)C(=O)N(C)CC(=O)N[C@@H](CCc3cc(F)c(C(F)(F)F)c(F)c3)C(=O)N2C1 [PP1022] | 17.5 nM | C (A compound having a KD ratio of 0.1 or more and less than 3 is denoted as C) | B (a compound having 3 or more and less than 10 is denoted as B) | – | – | – | – |
| CC[C@H](C)[C@@H]1NC(=O)[C@H](CC2CC2)N(C)C(=O)C[C@@H](C(=O)N2CCCC2)N(C)C(=O)[C@H](C2CCCC2)N(C)C(=O)C2(CCCC2)NC(=O)[C@@H]2C[C@@H](F)CN2C(=O)[C@H](CCc2cc(F)c(C(F)(F)F)c(F)c2)NC(=O)CN(C)C(=O)[C@H](Cc2ccc(C(F)(F)F)cc2)N2CC/C=C\C[C@@H](C2=O)N(C)C(=O)CN(C)C1=O [PP1503] | 3.8 nM | – | – | – | – | A (a compound having 10 or more and less than 20 is denoted as A) | A (a compound having 10 or more and less than 20 is denoted as A) |
| CCC[C@H]1C(=O)N[C@@H]([C@@H](C)CC)C(=O)N(C)CC(=O)N(C)[C@H]2C/C=C\CCN(C2=O)[C@@H](Cc2ccc(C)cc2)C(=O)N(C)CC(=O)N[C@@H](CCc2ccc(C(F)(F)F)c(OC)c2)C(=O)N2C[C@H](OCC)C[C@H]2C(=O)NC2(CC(C)(C)C2)C(=O)N(C)[C@@H]([C@@H](C)CC)C(=O)N(C)[C@H](C(=O)N(C)C)CC(=O)N1C [PP3006] | 14.1 nM | A (a compound having 10 or more and less than 20 is denoted as A) | A (a compound having 10 or more and less than 20 is denoted as A) | – | – | – | – |
| CCC[C@H]1C(=O)N[C@@H]([C@@H](C)CC)C(=O)N(C)CC(=O)N(C)[C@H]2C/C=C\CCN(C2=O)[C@@H](Cc2ccc(C)cc2)C(=O)N(C)CC(=O)N[C@@H](CCc2ccc(C(F)(F)F)c(OC)c2)C(=O)N2CC3(CC3)C[C@H]2C(=O)NC2(CC(C)(C)C2)C(=O)N(C)[C@@H](CC(F)(F)F)C(=O)N(C)[C@H](C(=O)N(C)C)CC(=O)N1C [PP3012] | 74.8 nM | A (a compound having 10 or more and less than 20 is denoted as A) | A (a compound having 10 or more and less than 20 is denoted as A) | – | – | – | – |
| CCO[C@@H]1C[C@H]2C(=O)NC3(CC(C)(C)C3)C(=O)N(C)[C@@H](C3CCCC3)C(=O)N(C)[C@H](C(=O)N(C)C)CC(=O)N(C)[C@@H](CC3CC3)C(=O)N[C@@H]([C@@H](C)CC)C(=O)N(C)CC(=O)N(C)[C@H]3C/C=C\CCN(C3=O)[C@@H](Cc3ccc(C(F)(F)F)cc3)C(=O)N(C)CC(=O)N[C@@H](CCc3cc(F)c(C(F)(F)F)c(F)c3)C(=O)N2C1 [PP1568] | 2.2 nM | – | – | – | – | A (a compound having 10 or more and less than 20 is denoted as A) | A (a compound having 10 or more and less than 20 is denoted as A) |
| CCCN(C)C(=O)[C@@H]1CC(=O)N(C)[C@@H](COC)C(=O)N[C@@H]([C@@H](C)CC)C(=O)N(C)CC(=O)N(C)[C@H]2C/C=C\CCN(C2=O)[C@@H](Cc2ccc(C(F)(F)F)cc2)C(=O)N(C)CC(=O)N[C@@H](CCc2cc(F)c(Cl)c(F)c2)C(=O)N2C[C@H](OCC)C[C@H]2C(=O)NC2(CC(C)(C)C2)C(=O)N(C)[C@@H](C2CCCC2)C(=O)N1C [PP1763] | 13.3 nM | – | – | – | – | A (a compound having 10 or more and less than 20 is denoted as A) | A (a compound having 10 or more and less than 20 is denoted as A) |
| CCCN1C(=O)[C@@H]2CCN2C(=O)[C@H](C)N(C)C(=O)[C@H]([C@@H](C)CC)NC(=O)[C@H](CC(C)C)N(C)C(=O)C[C@@H](C(=O)N2CCOCC2)N(C)C(=O)[C@H](C2CCCC2)N(C)C(=O)C2(CCCC2)NC(=O)[C@@H]2CCCN2C(=O)[C@H](CCc2ccc(C(F)(F)F)c(Cl)c2)NC(=O)CN(C)C(=O)[C@@H]1Cc1ccc(C)cc1 [PP0052] ([NMeL]I[NMeA][Aze][NPrPhe(4-Me)][Sar][hPhe(3-Cl-4-CF3)]P[Ac5c][NMeGly(cPent)][NMeD]-Morpholide; lactam N-11) | 1.7 nM | C (A compound having a KD ratio of 0.1 or more and less than 3 is denoted as C) | B (a compound having 3 or more and less than 10 is denoted as B) | – | – | – | – |
